Patent US20220370636A1, “NICOTINAMIDE ADENINE DINUCLEOTIDE ACTIVATOR AND USE THEREOF” (University of South Florida, priority 2021, published 2022)

Columns and labels:
db/db mice hearts = experiment: Western blotting of db/db heart lysates; assay type: in vivo; conditions: vs vehicle
Protocol: Western blotting. For studies aimed to assess the insulin stimulated AKT phosphorylation, following four-week P7C3 treatment, mice were injected with Novolin R human insulin (1 Unit/kg body weight, i.p.), and hearts were collected after 5 minutes for Western blot analysis. Protein lysates for Western blotting were prepared from mouse hearts as described previously. Equivalent amounts of protein were loaded and resolved using 12% precast polyacrylamide gels (BioRad, CA, USA). Successful transfer of proteins was detected using Ponceau S (Sigma-Aldrich, MO, USA), and blots were probed with mouse monoclonal primary antibody for phospho AKT^ser473 (p-AKT), total AKT (t-AKT), phospho eNOS^ser1177 (p-eNOS), total eNOS (t-eNOS), Beclin1, and GAPDH (Cell signaling, MA, USA). HRP conjugated Rabbit anti-mouse antibody (Millipore) was used as a secondary antibody. Target protein band densities were quantified using Image J software.

db/db mice [1] = experiment: Skeletal muscle histology, TEM, SDH staining and mtDNA copy number in db/db mice; assay type: in vivo
Protocol: Haematoxylin and eosin staining. The tibialis anterior (TA) muscle was dissected from the mice, and embedded in optimal cutting temperature (OCT), frozen in isopentane chilled in liquid nitrogen and stored at […]. […] Images were obtained at ×10 and ×20 magnifications with the Olympus IX73 inverted microscope and were quantified using CellSens Standard software (Olympus Soft Imaging Solution, USA).
Transmission electron microscopy. The EDL muscles were fixed with 2.5% glutaraldehyde in 0.1 M sodium phosphate buffer for 2 h at RT, and overnight at 4° C., followed by washing in buffer and fixation with 1% osmium tetroxide in buffer for 2 h at 4° C. After rinsing in buffer, the samples were then dehydrated in ethanol and acetone at RT and infiltrated in acetone:pure resin (Embed812) mix in vacuum with desiccant for 1 h and in pure resin for 4 h and embedded in the embedding mix. Polymerization of the embedding mix was carried out overnight at 70° C. in the embedding moulds. Semithin (1 μm) and ultrathin (70 nm) sections were cut using a Reichert Ultracut microtome machine. The sections were then stained with 2% uranyl acetate and contrasted with lead citrate as per standard protocol. Images were taken at ×15,000, ×30,000, and ×50,000 magnifications with a JOEL1400 transmission electron microscope for the analysis of myofibre diameter and the mitochondrial area.
Mitochondrial DNA (mtDNA) copy number. Total DNA was extracted from gastrocnemius (GAS) muscle using DNeasy Blood and Tissue kit (Qiagen, Md., USA) according to the manufacturer's protocol. The quantitative real-time PCR (qPCR) analysis of the mtDNA/nDNA was performed using iTaq Universal SYBR green supermix (Bio-Rad Laboratories, CA, USA). The mouse 16S was used as the mitochondrial gene and HK2 was used as the nuclear gene to obtain the mitochondrial copy number.
Succinate dehydrogenase staining. The 10 μm thick transverse cryosections of TA muscles were cut at the mid-belly region using Leica CM 1860 AgProtect cryostat machine. Briefly, the tissue sections were air-dried for 45 minutes, and incubated in 50 mM sodium succinate dibasic hexahydrate and 1.25 mM nitroblue tetrazolium in 0.1 M phosphate buffer (Sigma-Aldrich, MO, USA) for 30 min. The reaction was stopped washing in deionized water, and the sections were dehydrated in a series of graded ethanol and cleared using xylene. The sections were then mounted with DPX mountant, and the images were captured at ×20 magnification of the Olympus IX73 inverted microscope using CellSens Standard software (Olympus Soft Imaging Solution, USA) and the succinate dehydrogenase (SDH) positive myofibres were quantified with ImageJ software.

C2C12 cells = experiment: LPS induced LDH release in C2C12 skeletal myotubes; assay type: cell-based, mouse; conditions: P7C3 1 μM 24 hours
Nampt = target: T1, Nampt (Mus musculus, UniProt Q99KQ4); experiment: Cardiac Nampt enzymatic activity in db/db mice; assay type: in vivo; conditions: 10 mg/kg body weight/day, i.p., four-week, vs vehicle
T1 construct: from tissue; host or cells: whole heart homogenate of db/db mice
Text: Nampt enzymatic activity.

Sirt1 = Sirt1 deacetylase activity in db/db heart lysates; assay type: in vivo, mice; conditions: vs vehicle controls
Protocol: Sirt1 deacetylase activity. Sirt1 deacetylase activity was measured in the whole heart lysates from the vehicle and P7C3 treated db/db mice according to the manufacturer's protocol using a deacetylase fluorometric assay kit (Sigma-Aldrich, MO, USA). The fluorescence intensity was measured at 440 nm (excitation, 340 nm).

db/db mice [2] = experiment: Luminex Magpix IP-10 immunoassay of serum; assay type: in vivo; conditions: vs db-Veh
Protocol: Luminex Magpix IP-10 (C—X—C motif chemokine ligand 10) immunoassay. The serum inflammatory markers were analysed using a mouse cytokine/chemokine antibody-immobilized premixed 32-plex Luminex magnetic beads based 96-Well plate immunoassay kit (Milliplex Map kit—MCYTMAG-70K-PX32, EMD Millipore Corporation, MA, USA) according to the manufacturer's instruction. Briefly, the serum samples were diluted at 1:2 in the assay buffer and measured in duplicates along with the standards and quality controls. The serum samples were incubated overnight at 4° C. with the magnetic beads. The wells were then washed with wash buffer and incubated with the detection antibodies for 1 h at RT, followed by a streptavidin-phycoerythrin incubation for 30 min at RT. After washing, the plate was run on MAGPIX with xPONENT software. The mean fluorescent intensity data was analysed using a five-parameter logistic curve-fitting Multi Analyst software for calculating the cytokine/chemokine concentrations of the samples (n=6 mice per group).

[3] = tibialis anterior, H&E, vs db-Veh

T1 sequence (Q99KQ4 whole entry): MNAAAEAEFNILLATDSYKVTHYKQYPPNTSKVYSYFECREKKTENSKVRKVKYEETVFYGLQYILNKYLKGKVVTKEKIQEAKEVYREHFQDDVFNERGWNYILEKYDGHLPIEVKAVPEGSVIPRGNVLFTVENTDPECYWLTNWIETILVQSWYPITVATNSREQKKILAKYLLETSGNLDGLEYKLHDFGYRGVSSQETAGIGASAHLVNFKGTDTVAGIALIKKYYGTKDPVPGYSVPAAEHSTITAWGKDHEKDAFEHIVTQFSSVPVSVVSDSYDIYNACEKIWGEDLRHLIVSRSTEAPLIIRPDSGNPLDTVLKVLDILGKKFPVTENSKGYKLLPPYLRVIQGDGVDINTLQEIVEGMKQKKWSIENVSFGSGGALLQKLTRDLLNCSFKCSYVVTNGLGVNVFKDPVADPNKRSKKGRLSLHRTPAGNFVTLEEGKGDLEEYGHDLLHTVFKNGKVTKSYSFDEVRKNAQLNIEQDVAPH

## OC(CNc1ccccc1)Cn1c2ccc(Br)cc2c2cc(Br)ccc21 (stereo not shown) [P7C3, 3,6-Dibromo-a-[(phenylamino)methyl]-9H-carbazole-9-ethanol]
db/db mice hearts; 10 mg/kg/day i.p.
  p-AKT signaling in cardiac tissue: significantly increased
db/db mice hearts
  Beclin 1 protein expression: significant increase
  p-eNOS levels in cardiac tissue: significantly increased
db/db mice [1]; TA muscle, 4 weeks
  SDH positive myofibres: significantly improved
db/db mice [1]; TEM, db/db
  mitochondria morphology and function: improved
db/db mice [1]; TEM, vs db-Veh
  myofibre diameter of the extensor digitorum longus muscle: increase
db/db mice [1]; gastrocnemius, vs db-Veh
  16S expression (mtDNA): significantly decreased
db/db mice [1]; [3]
  medium and larger sized myofibres cross-sectional areas: increase
  small myofibres cross-sectional areas (0-1500 μm^2): significant decrease
C2C12 cells
  LPS induced LDH release (inflammation in vitro): attenuated
Nampt
  cardiac Nampt activity: significantly increased
Sirt1
  SiRT1 activity in cardiac tissue: significant increase
db/db mice [2]
  serum IP-10 levels: significant decrease
